Measured values from patent publication US6706509B2, “Oncoprotein protein kinase” (The Regents of the University of California, priority 1993, dated 2004).

Legend:
[1] = system: JNK (55 kD and 46 kD forms); test: In-gel kinase assay of JNK in Jurkat whole cell extracts; type: cell-based, human; conditions: for JNK activation, in-gel kinase assay, agent alone: TPA 50 ng/ml or A23187 1 μg/ml
Protocol: In-gel kinase assay was performed as described by Kameshita and Fujisawa, Anal. Biochem., 183:139, (1989) with slight modifications. Briefly, c-Jun binding proteins were isolated from whole cell extracts by using GSH-agarose beads containing 80 μg GST-cJun as described above. Proteins were eluted in Laemlli sample buffer and resolved on 10% SDS-polyacrylamide gel, which was polymerized in the absence or presence of GST-cJun (40 μg/ml). After electrophoresis, the gel was washed twice, 30 minutes each time with 100 ml of 20% 2-propanol, 50 mM HEPES pH 7.6 to remove SDS. After the gel was washed twice, 30 minutes each time, with 100 ml of buffer A (50 mM HEPES pH 7.6, 5 mM β-mercaptoethanol), it was incubated in 200 ml of 6M urea in buffer A at room temperature for 1 hr, followed by serial incubations in buffer A containing 0.05% Tween 20 and either 3M, 1.5M or 0.75M urea. After the gel was washed several times, 1 hr each time, with 100 ml of buffer A containing 0.05% Tween 20 at 4° C., it was incubated with kinase buffer containing 50 μM ATP and 5 μCi/ml γ-^32P-ATP at 30° C. for 1 hour. After the reaction, the gel was washed with 100 ml of 5% tricholoroacetic acid and 1% sodium pyrophosphate at room temperature several times, followed by drying and autoradiography.
JNK exists in two forms, 46 kD and 55 kD in size, both of which are activated by external stimuli (Hibi, et al., supra, 1993; Deng, et al., supra, 1993). […] Whole cell extracts (WCE) of Jurkat cells incubated with TPA (T, 50 ng/ml), A23187 (A, 1 μg/ml) or CsA (100 ng/ml) for 15 minutes, alone or in combination, were separated by SDS-PAGE (100 μg protein/lane) on gels that were cast in the absence or presence of GST-cJun (1-223). The gels were subjected to renaturation protocol and incubated in kinase buffer containing γ-^32P-ATP. The protein bands corresponding to the 55 kD and 46 kD forms of JNK are indicated.
The regulation of JNK in response to T cell activation with anti-CD3 and anti-CD28 antibodies was examined. Jurkat cells (1×10^7) were incubated for 15 minutes with either normal mouse serum, 1 μg/ml anti-CD3 and/or 2 μg/ml anti-CD28, in the absence or presence of 100 ng/ml CsA, as indicated. WCE were prepared and 100 μg samples were analyzed for JNK activation using the in-gel kinase assay, as described above.

ERK1 and ERK2 = ERK1 and ERK2 immunecomplex kinase assay with MBP substrate, Jurkat cells and mouse thymocytes; type: cell-based, human; mouse
Protocol: Exponentially growing cells were stimulated for the indicated times and hypotonic detergent cellular extracts were prepared as described (Hibi, et al., Genes and Dev., supra, 1993). The solid-state phosphorylation assay for measuring JNK activity was performed by incubated extracts with GSTcJun(1-223)-GSH agarose beads as described (Hibi, et al., supra., 1993) and as in Example 2. ERK1 and 2 activity was assayed by an immunecomplex kinase assay using MBP as a substrate (Minden, et al., Nature, 1993).
(§1) JNK is a proline-directed protein kinase activated by extracellular stimuli (Hibi, et al., supra, 1993). In that respect, it resembles the ERK1 and 2 MAP kinases (Boulton, et al., Cell, 65:663-675, 1991). Since ERK1 and 2 appear to be involved in induction of c-fos (Gille, et al., Nature, 358:414-417, 1992; Marais, et al., Cell, 73:381-393, 1993) and could thereby participate in T cell activation, their regulation was examined. ERK1 and ERK2 activities were measured in both Jurkat and mouse thymocytes using an immunecomplex kinase assay and myelin basic protein (MBP) as a substrate. Recombinant, kinase-defective ERK1 was also used a substrate for assaying MEK, the protein kinase responsible for activation of ERK1 and 2 (Crews, et al., Science, 258:478-480, 1992).
(§2) WCE (5 μg) of Jurkat (FIG. 15, panel A) or mouse thymocytes (panel C) were incubated with 1 μg of kinase-defective ERK1 in kinase buffer containing γ-^32P-ATP for 20 minutes. The phosphorylated proteins were separated by SDS-PAGE and the band corresponding to the mutant ERK1 is indicated. WCE (20 μg) of Jurkat (panel B) or mouse thymocytes (panel C) that were treated as described above were immunoprecipitated with anti-ERK antibodies (a gift from Dr. M. Weber). The immune complexes were washed and incubated in kinase buffer containing γ-^32P-ATP and 2 μg MBP for 15 minutes at 30° C. The phosphorylated proteins were separated by SDS-PAGE. The band corresponding to phosphorylated MBP is indicated.

MEK = MEK assay with kinase-defective ERK1 substrate, Jurkat cells and mouse thymocytes; type: cell-based, human; mouse
Protocol: as §1, §2

[2] = Jurkat cells or mouse thymocytes

Molecule | ERK activity, effect of A23187 or CsA (ERK1 and ERK2) | MEK activity, effect of A23187 or CsA (MEK) | JNK activation, in-gel kinase assay, agent alone ([1]; Jurkat, 15 minutes) | other results
anti-CD3: anti-CD3 monoclonal antibody OKT3 |  |  |  | JNK activity, in-gel kinase assay, simultaneous incubation with both antibodies ([1]; Jurkat, 1 μg/ml anti-CD3 and 2 μg/ml anti-CD28, 15 minutes): strong synergistic activation of both forms
cyclosporin A [CsA] | had no effect on either activity | had no effect on either activity |  | JNK activation, in-gel kinase assay, CsA added to TPA+A23187 ([1]; CsA 100 ng/ml, 15 minutes): blocked this costimulatory effect
CNc1ccc2oc(C[C@H]3O[C@@]4(CC[C@H]3C)O[C@H]([C@H](C)C(=O)c3ccc[nH]3)[C@H](C)C[C@H]4C)nc2c1C(=O)O [A23187] | had no effect on either activity | had no effect on either activity | did not activate JNK | JNK activation, in-gel kinase assay, costimulation with TPA ([1]; A23187 1 μg/ml plus TPA 50 ng/ml, 15 minutes): potentiated its activation by TPA
CCCCCCCCCCCCCC(=O)O[C@@H]1[C@@H](C)[C@@]2(O)[C@@H](C=C(CO)C[C@]3(O)C(=O)C(C)=C[C@@H]23)[C@H]2C(C)(C)[C@]12OC(C)=O [TPA] |  |  | activated | ERK activity, TPA treatment (ERK1 and ERK2; [2]): fully stimulated; MEK activity, TPA treatment (MEK; [2]): fully stimulated
